Measurements published in patent US9012420B2, “Aptamer for chymase, and use thereof” (Ribomic Inc., priority 2009, dated 2015).
Oligonucleotides are written 5' to 3', each unit as a sugar letter and its base; * is a phosphorothioate linkage, no mark a phosphodiester; rarer units and linkages stand in square brackets, end groups in braces. Plain capitals give the bases only. r = 2'-OH (RNA); f = 2'-fluoro

T1: chymase (recombinant, manufactured by SIGMA) (Homo sapiens, UniProt P23946)
T1 construct: purchased SIGMA; host or cells: yeast
T1 sequence (P23946 22-247): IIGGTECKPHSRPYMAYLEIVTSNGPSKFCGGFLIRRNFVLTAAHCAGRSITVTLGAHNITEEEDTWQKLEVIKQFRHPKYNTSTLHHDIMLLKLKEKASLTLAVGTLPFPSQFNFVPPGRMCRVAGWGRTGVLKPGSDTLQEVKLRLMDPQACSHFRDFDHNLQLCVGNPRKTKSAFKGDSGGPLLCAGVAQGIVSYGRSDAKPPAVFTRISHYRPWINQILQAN

T2: chymase (Homo sapiens, UniProt P23946)
T2 sequence (P23946 22-247): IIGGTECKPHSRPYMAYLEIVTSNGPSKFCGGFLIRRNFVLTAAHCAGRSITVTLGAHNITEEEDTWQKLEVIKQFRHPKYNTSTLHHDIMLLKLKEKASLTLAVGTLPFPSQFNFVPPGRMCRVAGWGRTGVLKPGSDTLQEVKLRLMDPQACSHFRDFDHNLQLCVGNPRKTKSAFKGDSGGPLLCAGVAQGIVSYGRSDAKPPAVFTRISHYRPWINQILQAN


Columns and labels:
[1] = target: T1, chymase (recombinant, manufactured by SIGMA); experiment: Surface plasmon resonance (Biacore T100), chymase immobilized on CM5 chip, nucleic acid injected as analyte; format: binding; parameters: key to Binding activity as determined using Biacore: ++: a sequence that binds to chymase significantly more strongly than the negative control 40N; +: a sequence that binds to chymase equivalently compared with the negative control 40N; key to binding activity using Biacore: ++: significant binding to chymase than SEQ ID NO: 58 which is a negative control; +: similar binding level as SEQ ID NO: 58 which is a negative control; conditions: for Binding activity as determined using Biacore: Table 4, about 4000 RU chymase immobilized, nucleic acid 0.3 μM, solution C, compared with 40N; for binding activity using Biacore: Table 5, same manner as Example 4, compared with SEQ ID NO: 58
Protocol: In another method, chymase is first immobilized onto a sensor chip, the amount immobilized being about 4000 RU. 20 μL of an aptamer solution for analyte, prepared at 0.01 μg/μL, is injected, and the binding of the aptamer to chymase is detected. An RNA containing a random nucleotide sequence of 30 or 40 nucleotides is used as a negative control.
Whether these nucleic acids bind to chymase was determined by the surface plasmon resonance method. Measurements were taken using Biacore T100 (manufactured by GE Healthcare) as described below. About 4000 RU of chymase (recombinant, manufactured by SIGMA) was immobilized on the sensor chip surface of a CM5 chip, using an amine coupling kit. 20 μL of each nucleic acid, prepared at 0.3 μM, as an analyte was injected at a flow rate of 20 μL/min. Solution C was used as a running buffer. The method of evaluation used was the same as Example 1.
All nucleic acids of SEQ ID NO: 58-68 were prepared by chemical synthesis. Whether these nucleic acids are bound to chymase was assessed by surface plasmon resonance method in the same manner as in Example 4. The inhibitory activity on chymase was measured in the same manner as in Example 3.
All nucleic acids of SEQ ID NOs: 73-79, 56(8), 80, 56(10), 81, 56(13)-56(14), 83-87 were prepared by chemical synthesis. Whether these nucleic acids are bound to chymase was assessed by surface plasmon resonance method in the same manner as in Example 4.
All nucleic acids of SEQ ID NO: 88-120, 121, 69, 122, 123, 70-72, 124-131 were prepared by chemical synthesis. Whether these nucleic acids are bound to chymase was assessed by surface plasmon resonance method in the same manner as in Example 4.

[2] = target: T1, chymase (recombinant, manufactured by SIGMA); experiment: Chymase inhibitory activity using synthetic substrate Suc-Ala-Ala-Pro-Phe-MCA; format: biochemical
Protocol: A first method employs a synthetic substrate. A useful chymase substrate is Suc-Ala-Ala-Pro-Phe-MCA (4-methylcoumaryl-7-amide group) (manufactured by Peptide Institute, Inc.), which contains the 4-amino acid peptide “Ala-Ala-Pro-Phe”, a standard substrate for chymotrypsin-like proteases.
The assay is performed using a 96-well plate (F16 Black Maxisorp Fluoronunc, manufactured by Nunc), with a reaction mixture volume of 100 μL, in a buffer solution (solution C; see Example 2 below). First, each nucleic acid is prepared in solution C to obtain 50 μL solutions. After 10 μL of the 1 mM substrate prepared in solution C is added, the plate is set to the microplate reader SpectraMax190 (manufactured by Molecular Devices Corporation), and incubated at 37° C. for 5 minutes. Separately, 0.05 μg of chymase (recombinant, manufactured by SIGMA) is diluted in solution C, and 40 μL of this dilution is incubated at 37° C. for 5 minutes. The chymase solution is added to the mixture of the nucleic acid and substrate to initiate an enzyme reaction. The plate containing the reaction mixture is set to the microplate reader SpectraMax190 (manufactured by Molecular Devices Corporation), and examined for time-dependent changes in the fluorescence intensity at 37° C. for 5 minutes (excitation wavelength 380 nm, detection wavelength 460 nm). A linear approximation of the increase in the fluorescence of the AMC (7-amino-4-methylcoumarine) released from the substrate by chymase activity is generated, and its slope is taken as the initial reaction velocity. For control, samples are treated and analyzed in the same manner in two cases: use of a nucleic acid pool containing a random sequence of 30 or 40 nucleotides (negative control), and use of chymostatin, a known chymotrypsin-like serine protease inhibitor (positive control). Taking the initial reaction velocity without the nucleic acid and inhibitor as a 100% enzyme activity, the inhibitory rate for each test substance is calculated, and the inhibitor concentration required to cause a 50% inhibition of the enzyme activity (IC50) is determined.
Whether the nucleic acids shown by SEQ ID NO: 4-20, 22-34, and 38-48 inhibit the enzyme activity of chymase was determined as described below. The chymase substrate used was Suc-Ala-Ala-Pro-Phe-MCA (manufactured by Peptide Institute, Inc.), which contains the 4-amino-acid peptide Ala-Ala-Pro-Phe, a standard substrate for chymotrypsin-like proteases. Here, Suc is a protecting succinyl group, and MCA is a 4-methylcoumaryl-7-amide group; upon cleavage of the C-terminal side of phenylalanine, AMC (7-amino-4-methylcoumarine) is released. By detecting the fluorescence of this AMC, the enzyme activity of chymase can be determined. The assay was performed using a 96-well plate (F16 Black Maxisorp Fluoronunc, manufactured by Nunc), with a reaction mixture volume of 100 μL, in solution C as a buffer solution. First, each nucleic acid was serially diluted to 0.0027-2 μM concentrations in solution C to obtain 50 μL solutions. After 10 μL of the 1 mM substrate prepared in solution C was added thereto, the plate was set to the microplate reader SpectraMax190 (manufactured by Molecular Devices Corporation), and incubated at 37° C. for 5 minutes. Separately, 0.05 μg (or 0.005 μg) of chymase (recombinant, manufactured by SIGMA) was diluted in solution C to obtain a 40 μL chymase solution, and incubated at 37° C. for 5 minutes. The chymase solution was added to the mixture of the nucleic acid and substrate to initiate an enzyme reaction. The final chymase concentration in the reaction mixture was 16.7 nM (or 1.67 nM), the final substrate concentration being 100 μM. The plate containing the reaction mixture was set to the microplate reader SpectraMax190 (manufactured by Molecular Devices Corporation), and examined for time-dependent changes in the fluorescence intensity at 37° C. for 5 minutes (or 30 minutes) (excitation wavelength 380 nm, detection wavelength 460 nm). […]

[3] = target: T2, chymase; experiment: Surface plasmon resonance (Biacore T100), aptamer immobilized on SA chip, chymase injected as analyte; format: binding; parameters: key: ++: a sequence that binds to chymase significantly more strongly than the negative control 40N; +: a sequence that binds to chymase equivalently compared with the negative control 40N; conditions: Table 1; about 1000 RU nucleic acid immobilized, chymase 0.2 μM analyte, running buffer solution A; compared with 40N
Protocol: Binding strength is measured using Biacore T100 (manufactured by GE Healthcare). In a method of measurement, the aptamer is first immobilized onto a sensor chip, the amount immobilized being about 1000 RU. 20 μL of a chymase solution for analyte, prepared at 0.2 μM, is injected, and the binding of chymase to the aptamer is detected. An RNA comprising a random nucleotide sequence of 30 or 40 nucleotides is used as a negative control.
The binding activities against chymase of the nucleic acids shown by SEQ ID NO: 4-20 and 22-34 were determined by the surface plasmon resonance method using Biacore T100 (manufactured by GE Healthcare). The sensor chip used was the SA chip, which had streptavidin immobilized thereon. Bound thereto was about 1500 RU of a 16-nucleotide Poly dT with biotin bound to the 5′ end thereof. […] 20 μL of chymase for analyte, prepared at 0.2 μM, was injected. Solution A was used as a running buffer.
The binding activities against chymase of the nucleic acids shown by SEQ ID NO: 38-48 were evaluated by the surface plasmon resonance method. In the evaluations for SEQ ID NO: 38-48, measurements were taken in the same manner as Example 1. Solution C was used as a running buffer.

[4] = Table 4, same manner as Example 3, mean value for 2 to 3 measurements
[5] = Table 5, same manner as Example 3, mean value of two measurements
[6] = Table 3, substrate 100 μM, solution C, 37° C., mean value for 2 to 3 measurements

Molecule	Binding activity as determined using Biacore [1]	IC50 [2, 4] [nM]	IC50 [2, 6] [nM]	Binding activity as determined using Biacore [3]	further results
49 (GGUUCUACAGAUAGAGAUAAAGUAGAACC; 2'-fluoro at CU, RNA at AG, backbone not given here) [compound 49]	++	117 ± 66	–	–	–
50 (GGCAUUCUACAGAUAGAGAUAAAGUAGAAUUUAAC; 2'-fluoro at CU, RNA at AG, backbone not given here) [compound 50]	++	138 ± 93	–	–	–
51 (CGUUACAUAAUGUAUAUACCAGGGUAACUAAACAUAGAAGAGCGG; 2'-fluoro at CU, RNA at AG, backbone not given here) [compound 51]	++	24 ± 9	–	–	–
52 (CCGUAUAUACCAGGGUAACUAAACGG; 2'-fluoro at CU, RNA at AG, backbone not given here) [compound 52]	+	> 1000	–	–	–
57 (GCAUUUGAGAUAGAUUUAAACAAACGC; 2'-fluoro at CU, RNA at AG, backbone not given here) [compound 57]	++	99 ± 13	–	–	–
59 (GGGUUAGAUAGAGAUAAAAACCC; 2'-fluoro at CU, RNA at AG, backbone not given here) [compound 59]	–	–	–	–	binding activity using Biacore [1]: ++; IC50 [2, 5]: 38 ± 9 nM
60 (GGGUUAGAUAGAGCUAAAAACCC; 2'-fluoro at CU, RNA at AG, backbone not given here) [compound 60]	–	–	–	–	binding activity using Biacore [1]: ++; IC50 [2, 5]: 26 ± 6 nM
61 (GGGUUAGAUAGAUUUAAAAACCC; 2'-fluoro at CU, RNA at AG, backbone not given here) [compound 61]	–	–	–	–	binding activity using Biacore [1]: ++; IC50 [2, 5]: 23 ± 6 nM
62 (GGGUUGGAUAGAGUUAAGAACCC; 2'-fluoro at CU, RNA at AG, backbone not given here) [compound 62]	–	–	–	–	binding activity using Biacore [1]: ++; IC50 [2, 5]: 29 ± 4 nM
6 (nucleic acid, aptamer) rGrGrGrAfCrGrGfUrArGrGrArAfUfUfCfUrAfCrGrGfUfCfUrGfUrGfUrGrArArAfUfUrGrArArAfCrAfCrAfCrArArArGrArAfCrArAfUrArGrAfCrAfUrArGrArArGrArGfCrGrGfCfCrGfC	–	–	456 ± 261	++	–
34 (nucleic acid, aptamer) rGrGrGrAfCrGrGfUrArGrGrArAfUfUfCfUrGfCfCrGfCrArAfCfCfCrArAfUrGrArArArAfCrGrArArGrAfUrArGrArGrAfUrArArAfUfCrGrArAfCrAfUrArGrArArGrArGfCrGrGfCfCrGfC	–	–	137 ± 9	+	–
5 (nucleic acid, aptamer) rGrGrGrAfCrGrGfUrArGrGrArAfUfUfCfCfCrAfCfUfUrGfUfCfUfUfUrGrArGrGfCrArArGrArArAfUfUrGfUrAfUfUfCfCrGrArArGrArArGfCrAfUrArGrArArGrArGfCrGrGfCfCrGfC	–	–	80 ± 39	++	–
7 (nucleic acid, aptamer) rGrGrGrAfCrGrGfUrArGrGrArAfUfUfCrAfCfCfUfUfUfCfCrArAfUfUrGfUrGrArArArGrArArAfCrAfCrArArArArArGrArArAfUrGrAfCrAfUfCrAfUrArGrArArGrArGfCrGrGfCfCrGfC	–	–	> 500	++	–
32 (nucleic acid) rGrGrGrAfCrGrGfUrArGrGrArAfUfUfCrGfUfCfCfUfCrAfUrGfUfCfUrAfUfUfUfUrGfCrArGrAfUrArGrAfCfUfUrArArArGfCrArArAfCrAfUrArGrArArGrArGfCrGrGfCfCrGfC	–	–	235 ± 55	+	–
33 (nucleic acid, aptamer) rGrGrGrAfCrGrGfUrArGrGrArAfUfUfCfCfUrGfUfCfUfUfUfUfCfCfCrAfCrGfCrArAfCrArArAfUfUrAfCrArGrArGfCfUfUfUrGfCrArArArAfCrAfUrArGrArArGrArGfCrGrGfCfCrGfC	–	–	145 ± 88	+	–
